Reference: ChEMBL document CHEMBL4308841, “Synthesis, in vitro antiproliferative activity, and kinase inhibitory effects of pyrazole-containing diarylureas and diarylamides” (Eur J Med Chem, 2018)

What was measured:
Assay type in all cases: functional, cell-based
[1] = system: M14; assay: Growth inhibition of human M14 cells incubated for 48 hrs by sulforhodamine B assay; details: M14, 48 h
[2] = system: SK-MEL-2; assay: Growth inhibition of human SK-MEL-2 cells incubated for 48 hrs by sulforhodamine B assay; details: SK-MEL-2, 48 h
[3] = system: MDA-MB-435; assay: Growth inhibition of human MDA-MB-435 cells incubated for 48 hrs by sulforhodamine B assay; details: MDA-MB-435, 48 h
[4] = system: PC-3; assay: Growth inhibition of human PC3 cells incubated for 48 hrs by sulforhodamine B assay; details: PC-3, 48 h
[5] = system: UACC-257; assay: Growth inhibition of human UACC257 cells incubated for 48 hrs by sulforhodamine B assay; details: UACC-257, 48 h
[6] = system: NCI-H226; assay: Growth inhibition of human NCI-H226 cells incubated for 48 hrs by sulforhodamine B assay; details: NCI-H226, 48 h
[7] = system: HOP-62; assay: Growth inhibition of human HOP62 cells incubated for 48 hrs by sulforhodamine B assay; details: HOP-62, 48 h
[8] = system: MOLT-4; assay: Growth inhibition of human MOLT4 cells incubated for 48 hrs by sulforhodamine B assay; details: MOLT-4, 48 h, read-out: TGI
[9] = system: IGROV-1; assay: Growth inhibition of human IGROV1 cells incubated for 48 hrs by sulforhodamine B assay; details: IGROV-1, 48 h, read-out: TGI
[10] = system: SK-MEL-5; assay: Growth inhibition of human SK-MEL-5 cells incubated for 48 hrs by sulforhodamine B assay; details: SK-MEL-5, 48 h
[11] = system: UACC-62; assay: Growth inhibition of human UACC62 cells incubated for 48 hrs by sulforhodamine B assay; details: UACC-62, 48 h
[12] = system: NCI-H23; assay: Growth inhibition of human NCI-H23 cells incubated for 48 hrs by sulforhodamine B assay; details: NCI-H23, 48 h
[13] = system: HL-60(TB); assay: Growth inhibition of human HL-60(TB) cells incubated for 48 hrs by sulforhodamine B assay; details: HL-60, 48 h
[14] = system: HT-29; assay: Growth inhibition of human HT-29 cells incubated for 48 hrs by sulforhodamine B assay; details: HT-29, 48 h
[15] = system: HOP-92; assay: Growth inhibition of human HOP92 cells incubated for 48 hrs by sulforhodamine B assay; details: HOP-92, 48 h
[16] = system: NCI-H522; assay: Growth inhibition of human NCI-H522 cells incubated for 48 hrs by sulforhodamine B assay; details: NCI-H522, 48 h
[17] = system: T47D; assay: Growth inhibition of human T47D cells incubated for 48 hrs by sulforhodamine B assay
[18] = system: KM12; assay: Growth inhibition of human KM12 cells incubated for 48 hrs by sulforhodamine B assay; details: KM12, 48 h
[19] = system: Malme-3M; assay: Growth inhibition of human MALME-3M cells incubated for 48 hrs by sulforhodamine B assay
[20] = system: SF-295; assay: Growth inhibition of human SF295 cells incubated for 48 hrs by sulforhodamine B assay; details: SF-295, 48 h
[21] = system: ACHN; assay: Growth inhibition of human ACHN cells incubated for 48 hrs by sulforhodamine B assay; details: read-out: TGI
[22] = system: MDA-MB-468; assay: Growth inhibition of human MDA-MB-468 cells incubated for 48 hrs by sulforhodamine B assay; details: MDA-MB-468, 48 h
[23] = system: RPMI-8226; assay: Growth inhibition of human RPMI8226 cells incubated for 48 hrs by sulforhodamine B assay; details: RPMI-8226, 48 h
[24] = system: TK-10; assay: Growth inhibition of human TK10 cells incubated for 48 hrs by sulforhodamine B assay; details: TK-10, 48 h
[25] = system: SF-539; assay: Growth inhibition of human SF539 cells incubated for 48 hrs by sulforhodamine B assay; details: SF-539, 48 h
[26] = system: COLO 205; assay: Growth inhibition of human COLO205 cells incubated for 48 hrs by sulforhodamine B assay; details: COLO 205, 48 h
[27] = system: NCI/ADR-RES; assay: Growth inhibition of human NCI/ADR-RES cells incubated for 48 hrs by sulforhodamine B assay; details: read-out: TGI
[28] = system: HCT-116; assay: Growth inhibition of human HCT116 cells incubated for 48 hrs by sulforhodamine B assay; details: HCT-116, 48 h
[29] = system: CCRF-CEM; assay: Growth inhibition of human CCRF-CEM cells incubated for 48 hrs by sulforhodamine B assay
[30] = system: MDA-MB-231; assay: Growth inhibition of human MDA-MB-231 cells incubated for 48 hrs by sulforhodamine B assay; details: MDA-MB-231, 48 h
[31] = system: MCF7; assay: Growth inhibition of human MCF7 cells incubated for 48 hrs by sulforhodamine B assay; details: MCF7, 48 h, read-out: TGI

## CNC(=O)c1cc(Oc2ccc(NC(=O)Nc3ccc(Cl)c(C(F)(F)F)c3)cc2)ccn1 [SORAFENIB]
[1]
  IC50: 2000 nM
[2]
  IC50: 2000 nM
[3]
  IC50: 1580 nM
[4]
  IC50: 2000 nM
[5]
  IC50: 2000 nM
[5]; read-out: TGI
  TGI: 5010 nM
[6]
  IC50: 2000 nM
[7]
  IC50: 2000 nM
[8]
  TGI: 100000 nM
[9]
  TGI: 10000 nM
[10]
  IC50: 1580 nM
[11]
  IC50: 1580 nM
[12]
  IC50: 2000 nM
[12]; read-out: TGI
  TGI: 5010 nM
[13]
  IC50: 1580 nM
[13]; read-out: TGI
  TGI: 100000 nM
[14]
  IC50: 2000 nM
[15]
  IC50: 1580 nM
[15]; read-out: TGI
  TGI: 5010 nM
[16]
  IC50: 2000 nM
[17]
  IC50: 1580 nM
[18]
  IC50: 1580 nM
[19]
  IC50: 2000 nM
[20]
  IC50: 1580 nM
[21]
  TGI: 10000 nM
[22]
  IC50: 2000 nM
[23]
  IC50: 1580 nM
[24]
  IC50: 3980 nM
[24]; read-out: TGI
  TGI: 10000 nM
[25]
  IC50: 1580 nM
[26]
  IC50: 2000 nM
[27]
  TGI: 7940 nM
[28]
  IC50: 1580 nM
[29]
  IC50: 2000 nM
[30]
  IC50: 1260 nM
[31]
  TGI: 7940 nM
